Source: ChEMBL document CHEMBL1201862, “PubChem BioAssay data set” (2004)
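These data come from cells grown in 96-well plates and exposed to compound for 48 hours at five concentrations. Abbreviation: GI50, concentration required for 50% inhibition of growth.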 Calls of active or inactive are those of the source. No stated cut-off is given here; in the data, active = GI50 up to about 1.1 µM and inactive = higher.

Columns and labels:
Assay in all cases: growth of human tumour cells (NCI), 48 h
HT-29 = tested on: HT-29
Hs-578T = tested on: Hs-578T
IGROV-1 = tested on: IGROV-1
K562 = tested on: K562
KM12 = tested on: KM12
MDA-MB-435 = tested on: MDA-MB-435
MDA-N = tested on: MDA-N
MOLT-4 = tested on: MOLT-4
Malme-3M = tested on: Malme-3M
NCI-H23 = tested on: NCI-H23
OVCAR-4 = tested on: OVCAR-4
OVCAR-5 = tested on: OVCAR-5
OVCAR-8 = tested on: OVCAR-8
SF-295 = tested on: SF-295
SF-539 = tested on: SF-539
SK-MEL-28 = tested on: SK-MEL-28
SN12C = tested on: SN12C
SR = tested on: SR
SW-620 = tested on: SW-620
UACC-257 = tested on: UACC-257

Row | Compound | GI50 (HT-29) | GI50 (Hs-578T) | GI50 (IGROV-1) | GI50 (K562) | GI50 (KM12) | GI50 (MDA-MB-435) | GI50 (MDA-N) | GI50 (MOLT-4) | GI50 (Malme-3M) | GI50 (NCI-H23) | GI50 (OVCAR-4) | GI50 (OVCAR-5) | GI50 (OVCAR-8) | GI50 (SF-295) | GI50 (SF-539) | GI50 (SK-MEL-28) | GI50 (SN12C) | GI50 (SR) | GI50 (SW-620) | GI50 (UACC-257)
1 | CCc1nc2c(c(N(C)C)c1C(=O)OC)CCc1ccccc1-2 | 27.7 µM (inactive) | 51.1 µM (inactive) | 40.4 µM (inactive) | 20.2 µM (inactive) | 30.9 µM (inactive) | 23.4 µM (inactive) | 26.2 µM (inactive) | 4.14 µM (inactive) | 30.5 µM (inactive) | 34.4 µM (inactive) | 44.8 µM (inactive) | 32.2 µM (inactive) | 34.1 µM (inactive) | 17.6 µM (inactive) | 39.4 µM (inactive) | 38.5 µM (inactive) | 28.8 µM (inactive) | 11.4 µM (inactive) | 32.8 µM (inactive) | 26.1 µM (inactive)
2 | CC1c2cc(c3c(c2O)CN([C@@H](C)C2CCCCC2)CO3)C(C)c2cc(c3c(c2O)CN([C@@H](C)C2CCCCC2)CO3)C(C)c2cc(c3c(c2O)CN([C@@H](C)C2CCCCC2)CO3)C(C)c2cc1c1c(c2O)CN([C@@H](C)C2CCCCC2)CO1 (stereo not given in full) | 0.277 µM (active) | 1.35 µM (inactive) | 1.32 µM (inactive) | 0.369 µM (active) | 0.838 µM (active) | 1.8 µM (inactive) | 0.849 µM (active) | 1.34 µM (inactive) | 1.45 µM (inactive) | 1.5 µM (inactive) | 0.929 µM (active) | 1.78 µM (inactive) | 1.15 µM (inactive) | 1.8 µM (inactive) | 1.77 µM (inactive) | 1.76 µM (inactive) | 0.962 µM (active) | 0.197 µM (active) | 0.986 µM (active) | 1.66 µM (inactive)
3 | CN(C)Cc1ccc(C(C)(C)C)cc1-c1cc(C(C)(C)C)ccc1CN(C)C | 33 µM (inactive) | > 100 µM (inactive) | > 100 µM (inactive) | 27.8 µM (inactive) | 34.3 µM (inactive) | 55.6 µM (inactive) | 48.5 µM (inactive) | 40.2 µM (inactive) | 31.3 µM (inactive) | 77.4 µM (inactive) | 53.7 µM (inactive) | > 100 µM (inactive) | > 100 µM (inactive) | 33.5 µM (inactive) | > 100 µM (inactive) | 33.3 µM (inactive) | 22.2 µM (inactive) | 39 µM (inactive) | > 100 µM (inactive) | 21.6 µM (inactive)
4 | CC(C)(C)c1ccc(C(C)(C)C)c(N2C(=O)C3ON=C(c4ccc([N+](=O)[O-])cc4)C3C2=O)c1 (stereo not given) | 21.4 µM (inactive) | 6.98 µM (inactive) | 4.5 µM (inactive) | 11 µM (inactive) | > 25 µM (inactive) | 8.77 µM (inactive) | 7.38 µM (inactive) | > 25 µM (inactive) | > 25 µM (inactive) | > 25 µM (inactive) | 8.57 µM (inactive) | > 25 µM (inactive) | 10.4 µM (inactive) | 12.9 µM (inactive) | > 25 µM (inactive) | > 25 µM (inactive) | > 25 µM (inactive) | 3.48 µM (inactive) | 16.2 µM (inactive) | > 25 µM (inactive)
5 | CCN(CC)c1ccc(C(=C2C=CC(=[N+](CC)CC)C=C2)c2ccc(N(CC)CC)cc2)cc1 | 0.0414 µM (active) | 0.0889 µM (active) | 0.146 µM (active) | 0.0353 µM (active) | 0.0561 µM (active) | 0.111 µM (active) | 0.103 µM (active) | 0.115 µM (active) | 0.148 µM (active) | 0.0773 µM (active) | 0.234 µM (active) | 0.303 µM (active) | 0.0391 µM (active) | 0.0483 µM (active) | 0.195 µM (active) | 0.489 µM (active) | 0.0522 µM (active) | 0.0843 µM (active) | 0.0711 µM (active) | 0.132 µM (active)
6 | Cc1nc2ccccc2n1CCc1nc2ccccc2[nH]1 | > 100 µM (inactive) | > 100 µM (inactive) | > 100 µM (inactive) | > 100 µM (inactive) | > 100 µM (inactive) | > 100 µM (inactive) | > 100 µM (inactive) | > 100 µM (inactive) | > 100 µM (inactive) | > 100 µM (inactive) | > 100 µM (inactive) | > 100 µM (inactive) | > 100 µM (inactive) | > 100 µM (inactive) | > 100 µM (inactive) | > 100 µM (inactive) | > 100 µM (inactive) | > 100 µM (inactive) | > 100 µM (inactive) | > 100 µM (inactive)
7 | N#CC(C(=O)O)C(c1c(Cl)cccc1Cl)C(C#N)C(=O)O (stereo not given) | > 100 µM (inactive) | > 100 µM (inactive) | > 100 µM (inactive) | > 100 µM (inactive) | > 100 µM (inactive) | > 100 µM (inactive) | > 100 µM (inactive) | > 100 µM (inactive) | > 100 µM (inactive) | > 100 µM (inactive) | > 100 µM (inactive) | > 100 µM (inactive) | > 100 µM (inactive) | > 100 µM (inactive) | > 100 µM (inactive) | > 100 µM (inactive) | > 100 µM (inactive) | > 100 µM (inactive) | > 100 µM (inactive) | > 100 µM (inactive)
